The subject of test [1] is KRAS-mutant lung cancer cell lines. The test can be described thus: Clonogenic assay. In kind it is cell-based, human. The following applies: for sensitization to trametinib (MEK inhibition) in combination: combined with trametinib, KRAS-mutant lung cancer cell lines. Here is the method: All experiments were performed at least three times. Representative experiments are shown.

Test [2] deals with BRAF and KRAS-mutant cancers of multiple lineages. Conditions: GDSC dataset; BRAF-mutant compared with KRAS-mutant tumor cells; cited from earlier work.

Entries after “also recorded” stand apart in the source; their conditions may differ.

For `CCN1CCN(c2ccc(Nc3cc(N(C)C(=O)Nc4c(Cl)c(OC)cc(OC)c4Cl)ncn3)cc2)CC1` [BGJ398], the “sensitization to trametinib (MEK inhibition) in combination” value in test [1] is reported as “comparable effects; also recorded: confer sensitivity to MEK inhibition”.

For `COCC(=O)NC/C=C/c1ccc2ncnc(Nc3ccc(Oc4ccc(C)nc4)c(C)c3)c2c1` [CP724714], in test [1] (H23 cells, combined with Trametinib), the “synergy when combined with Trametinib” value is “no synergy”.

With `O=C(NOC[C@H](O)CO)c1ccc(F)c(F)c1Nc1ccc(I)cc1F` [PD0325901], the “sensitivity to MEK inhibitor (IC50), BRAF-mutant versus KRAS-mutant tumor cells” value in test [2] is “significantly more sensitive”.

As for `COc1cc(F)c(F)c(Nc2ccc(I)cc2F)c1NS(=O)(=O)C1(C[C@H](O)CO)CC1` [RDEA119], the “sensitivity to MEK inhibitor (IC50), BRAF-mutant versus KRAS-mutant tumor cells” value in test [2] is on record as “significantly more sensitive”.

As to `O=C(Nc1ccc2[nH]nc(-c3ccncc3)c2c1)[C@@H]1CCN(CC(=O)N2CCN(c3ccc(-c4ncccn4)cc3)CC2)C1` [SCH772984], the “effect of co-treatment on antiproliferative effects of Trametinib” value in test [1] (co-treatment with Trametinib compared with Trametinib alone) is “enhances the antiproliferative effects of trametinib”.

AZD4547: the “sensitization to trametinib (MEK inhibition) in combination” value in test [1] is given as “comparable effects; also recorded: confer sensitivity to MEK inhibition”.
